Drawing on patent US20250042879A1, “HETEROCYCLIC SUBSTITUTED 1,3,4-THIADIAZOLE AND PYRIDAZINE COMPOUNDS AND METHODS OF USING THE SAME” (Rgenta Therapeutics, Inc., priority 2021, published 2025), this text covers Emax and EC50 for 61 compounds.

Molecules are shown by their SMILES. Bounds are passed on as bounds.

One experiment concerns HTT. The experiment in a line: Mini-gene reporter assay-HTT (firefly luciferase, exon inclusion). It is filed as cell-based. As to conditions: HTT Minigene, 5 μM; read-out: % Efficacy at 5 μM. In short, it runs like this: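 HEK293 cells transiently transfected with a pcDNA3.1 mini-gene carrying the alternatively skipped exon with flanking introns and exons fused to firefly luciferase were incubated with compound, in duplicate. Exon inclusion raises luciferase luminescence. EC50 came from Levenberg-Marquardt curve fitting.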
`COc1cc(-c2ccc(-c3ccc(C4CN(Cc5ccccn5)C4)nn3)c(O)c2)cc2cn(C)nc12` [Compound 129]: the Emax at 5 µM was less than 25%.

Consider `COc1cc(-c2ccc(-c3ccc(C4CN(Cc5cccnc5)C4)nn3)c(O)c2)cc2cn(C)nc12` [Compound 130], for which the Emax at 5 µM fell in the range of 25 to 75%.

`COc1cc(-c2ccc(-c3ccc(C4CN(CC5CC=CCC5)C4)nn3)c(O)c2)cc2cn(C)nc12` (stereo not shown) [Compound 131]: the Emax at 5 µM was greater than 750%.

`CCN1CCC(N2CC(c3ccc(-c4ccc(-c5cc(OC)c6nn(C)cc6c5)cc4O)nn3)C2)CC1` [Compound 132]: the Emax at 5 µM was less than 25%.

Take `COc1cc(-c2ccc(-c3ccc(C4CN(Cc5c(C)nn(C)c5C)C4)nn3)c(O)c2)cc2cn(C)nc12` [Compound 133]: the Emax at 5 µM is less than 25%.

As for `COc1cc(-c2ccc(-c3ccc(C4CN(C5CCN(C6CC6)CC5)C4)nn3)c(O)c2)cc2cn(C)nc12` [Compound 134], the Emax at 5 µM was less than 25%.

On to `COc1cc(-c2ccc(-c3ccc(C4CN(C5CCC(C)C5)C4)nn3)c(O)c2)cc2cn(C)nc12` (stereo not shown) [Compound 135], for which the Emax at 5 µM fell in the range of 25 to 75%.

Consider `COc1cc(-c2ccc(-c3ccc(C4CN(CC(C)(C)C)C4)nn3)c(O)c2)cc2cn(C)nc12` [Compound 136], for which the Emax at 5 µM is greater than 750%.

For the compound `COc1cc(-c2ccc(-c3ccc(C4CN(C5CCCC5)C4)nn3)c(O)c2)cc2cn(C)nc12` [Compound 137], the Emax at 5 µM was greater than 750%.

On to `COc1cc(-c2ccc(-c3ccc(C4CN(C(C)c5ccccn5)C4)nn3)c(O)c2)cc2cn(C)nc12` (stereo not shown) [Compound 138], for which the Emax at 5 µM was 25 to 75%.

Consider `COc1cc(-c2ccc(-c3ccc(C4CN(C5CCN(C6CC6)C5)C4)nn3)c(O)c2)cc2cn(C)nc12` (stereo not shown) [Compound 139], for which the Emax at 5 µM lay within 25 to 75%.

For the compound `COc1cc(-c2ccc(-c3ccc(C4CN(Cc5csnn5)C4)nn3)c(O)c2)cc2cn(C)nc12` [Compound 140], the Emax at 5 µM was less than 25%.

`COc1cc(-c2ccc(-c3ccc(C4CN(Cc5cncs5)C4)nn3)c(O)c2)cc2cn(C)nc12` [Compound 141]: the Emax at 5 µM is 25 to 75%.

Take `COc1cc(-c2ccc(-c3ccc(C4CN(C5CCCSC5)C4)nn3)c(O)c2)cc2cn(C)nc12` (stereo not shown) [Compound 142]: the Emax at 5 µM is 25 to 75%.

Regarding `COCC(C)N1CC(c2ccc(-c3ccc(-c4cc(OC)c5nn(C)cc5c4)cc3O)nn2)C1` (stereo not shown) [Compound 143], the Emax at 5 µM was greater than 750%.

Turning to `COc1cc(-c2ccc(-c3ccc(C4CN(C5CCC(OC)CC5)C4)nn3)c(O)c2)cc2cn(C)nc12` (stereo not shown) [Compound 144], the Emax at 5 µM is greater than 750%.

For `COc1cc(-c2ccc(-c3ccc(C4CN(C5CCOC(C)C5)C4)nn3)c(O)c2)cc2cn(C)nc12` (stereo not shown) [Compound 145], the Emax at 5 µM lay within 25 to 75%.

On to `COc1cc(-c2ccc(-c3ccc(C4CN(C5CCOC(C)(C)C5)C4)nn3)c(O)c2)cc2cn(C)nc12` (stereo not shown) [Compound 146], for which the Emax at 5 µM was 25 to 75%.

With `COc1cc(-c2ccc(-c3ccc(C4CN(CC5CCCOC5)C4)nn3)c(O)c2)cc2cn(C)nc12` (stereo not shown) [Compound 147], the Emax at 5 µM was greater than 750%.

Take `COc1cc(-c2ccc(-c3ccc(C4CN(C(C)COC(C)C)C4)nn3)c(O)c2)cc2cn(C)nc12` (stereo not shown) [Compound 148]: the Emax at 5 µM lay within 25 to 75%.

In the case of `COc1cc(-c2ccc(-c3ccc(C4CN(Cc5nc(C)ccc5O)C4)nn3)c(O)c2)cc2cn(C)nc12` [Compound 149], the Emax at 5 µM lay in the range of 25 to 75%.

Consider `COc1cc(-c2ccc(-c3ccc(C4CN(Cc5cccnc5C)C4)nn3)c(O)c2)cc2cn(C)nc12` [Compound 150], for which the Emax at 5 µM fell in the range of 25 to 75%.

With `COc1cc(-c2ccc(-c3ccc(C4CN(C(C)C5CCOC5)C4)nn3)c(O)c2)cc2cn(C)nc12` (stereo not shown) [Compound 151], the Emax at 5 µM is greater than 750%.

For `CCn1ccc(CN2CC(c3ccc(-c4ccc(-c5cc(OC)c6nn(C)cc6c5)cc4O)nn3)C2)c1` [Compound 152], the Emax at 5 µM is less than 25%.

`COc1ccc(CN2CC(c3ccc(-c4ccc(-c5cc(OC)c6nn(C)cc6c5)cc4O)nn3)C2)cn1` [Compound 153]: the Emax at 5 µM was less than 25%.

Consider `COc1cc(-c2ccc(-c3ccc(C4CN(C5CCCOCC5)C4)nn3)c(O)c2)cc2cn(C)nc12` (stereo not shown) [Compound 155], for which the Emax at 5 µM was greater than 750%.

Take `COc1cc(-c2ccc(-c3ccc(C4CN(C(C)C5CCOCC5)C4)nn3)c(O)c2)cc2cn(C)nc12` (stereo not shown) [Compound 156]: the Emax at 5 µM was greater than 750%.

With `COc1cc(-c2ccc(-c3ccc(C4CN(C(C)C5CCC5)C4)nn3)c(O)c2)cc2cn(C)nc12` (stereo not shown) [Compound 157], the Emax at 5 µM was greater than 750%.

Regarding `COc1cc(-c2ccc(-c3ccc(C4CN(C(C)CC5CCOC5)C4)nn3)c(O)c2)cc2cn(C)nc12` (stereo not shown) [Compound 158], the Emax at 5 µM was greater than 750%.

Turning to `COc1cc(-c2ccc(-c3ccc(C4CN(Cc5ccc(O)nc5)C4)nn3)c(O)c2)cc2cn(C)nc12` [Compound 159], the Emax at 5 µM was 25 to 75%.

As to `COc1cc(-c2ccc(-c3ccc(C4CN(C5CC(OC)C5)C4)nn3)c(O)c2)cc2cn(C)nc12` (stereo not shown) [Compound 160], the Emax at 5 µM fell in the range of 25 to 75%.

As for `COc1cc(-c2ccc(-c3ccc(C4CN(Cc5cc(C6CC6)[nH]n5)C4)nn3)c(O)c2)cc2cn(C)nc12` [Compound 161], the Emax at 5 µM was in the range of 25 to 75%.

For `COc1cc(-c2ccc(-c3ccc(C4CN(Cc5cnc(C)o5)C4)nn3)c(O)c2)cc2cn(C)nc12` [Compound 162], the Emax at 5 µM is 25 to 75%.

On to `CCOC1CC(N2CC(c3ccc(-c4ccc(-c5cc(OC)c6nn(C)cc6c5)cc4O)nn3)C2)C1` (stereo not shown) [Compound 163], for which the Emax at 5 µM lay within 25 to 75%.

Turning to `COc1cc(-c2ccc(-c3ccc(C4CN(C5CCC(C#N)CC5)C4)nn3)c(O)c2)cc2cn(C)nc12` (stereo not shown) [Compound 164], the Emax at 5 µM was greater than 750%.

As for `COc1cc(-c2ccc(-c3ccc(C4CN(CC5CCSCC5)C4)nn3)c(O)c2)cc2cn(C)nc12` [Compound 167], the Emax at 5 µM fell in the range of 25 to 75%.

For the compound `COc1cc(-c2ccc(-c3ccc(C4CN(CCC5CCOCC5)C4)nn3)c(O)c2)cc2cn(C)nc12` [Compound 168], the Emax at 5 µM was greater than 750%.

As to `COc1cc(-c2ccc(-c3ccc(C4CN(CC(C)CCC#N)C4)nn3)c(O)c2)cc2cn(C)nc12` (stereo not shown) [Compound 169], the Emax at 5 µM is greater than 750%.

As to `COc1cc(-c2ccc(-c3ccc(C4CN(Cc5ocnc5C)C4)nn3)c(O)c2)cc2cn(C)nc12` [Compound 170], the Emax at 5 µM is less than 25%.

For the compound `COc1cc(-c2ccc(-c3ccc(C4CN(C5CC6(CCOCC6)C5)C4)nn3)c(O)c2)cc2cn(C)nc12` [Compound 171], the Emax at 5 µM was in the range of 25 to 75%.

`COc1cc(-c2ccc(-c3ccc(C4CN(C5CCOC6(CCC6)C5)C4)nn3)c(O)c2)cc2cn(C)nc12` (stereo not shown) [Compound 172]: the Emax at 5 µM was 25 to 75%.

Turning to `COc1cc(-c2ccc(-c3ccc(C4CN(C(C)Cc5cnccn5)C4)nn3)c(O)c2)cc2cn(C)nc12` (stereo not shown) [Compound 173], the Emax at 5 µM is 25 to 75%.

In the case of `COc1cc(-c2ccc(-c3ccc(C4CN(CC5(SC)CC5)C4)nn3)c(O)c2)cc2cn(C)nc12` [Compound 174], the Emax at 5 µM was in the range of 25 to 75%.

In the case of `CCc1ncc(CN2CC(c3ccc(-c4ccc(-c5cc(OC)c6nn(C)cc6c5)cc4O)nn3)C2)cn1` [Compound 175], the Emax at 5 µM lay within 25 to 75%.

Consider `CCCC(CN1CC(c2ccc(-c3ccc(-c4cc(OC)c5nn(C)cc5c4)cc3O)nn2)C1)OC` (stereo not shown) [Compound 176], for which the Emax at 5 µM was 25 to 75%.

For the compound `COc1cc(-c2ccc(-c3ccc(C4CN(C5CC(C)OC5C)C4)nn3)c(O)c2)cc2cn(C)nc12` (stereo not shown) [Compound 177], the Emax at 5 µM was in the range of 25 to 75%.

On to `CCC(C)(CN1CC(c2ccc(-c3ccc(-c4cc(OC)c5nn(C)cc5c4)cc3O)nn2)C1)OC` (stereo not shown) [Compound 178], for which the Emax at 5 µM is less than 25%.

In the case of `COCC1CCC(N2CC(c3ccc(-c4ccc(-c5cc(OC)c6nn(C)cc6c5)cc4O)nn3)C2)CC1` (stereo not shown) [Compound 179], the Emax at 5 µM was in the range of 25 to 75%.

For `COc1cc(-c2ccc(-c3ccc(C4CN(Cc5ccc(C)nn5)C4)nn3)c(O)c2)cc2cn(C)nc12` [Compound 180], the Emax at 5 µM was 25 to 75%.

For the compound `COc1cc(-c2ccc(-c3ccc(C4CN(Cc5ccc(CO)cc5)C4)nn3)c(O)c2)cc2cn(C)nc12` [Compound 181], the Emax at 5 µM is 25 to 75%.

Take `COc1cc(-c2ccc(-c3ccc(C4CN(Cc5cnsc5)C4)nn3)c(O)c2)cc2cn(C)nc12` [Compound 182]: the Emax at 5 µM was in the range of 25 to 75%.

`COc1cc(-c2ccc(-c3ccc(C4CN(C5CCCSCC5)C4)nn3)c(O)c2)cc2cn(C)nc12` (stereo not shown) [Compound 183]: the Emax at 5 µM was greater than 750%.

For `COc1cc(-c2ccc(-c3ccc(C4CN(Cc5cc6n(n5)CCC6)C4)nn3)c(O)c2)cc2cn(C)nc12` [Compound 184], the Emax at 5 µM was 25 to 75%.

For the compound `COc1cc(-c2ccc(-c3ccc(C4CN(CC5CC6CC6C5)C4)nn3)c(O)c2)cc2cn(C)nc12` (stereo not shown) [Compound 185], the Emax at 5 µM was in the range of 25 to 75%.

On to `COc1cc(-c2ccc(-c3ccc(C4CN(CC5CCC6CC6C5)C4)nn3)c(O)c2)cc2cn(C)nc12` (stereo not shown) [Compound 186], for which the Emax at 5 µM is 25 to 75%.

In the case of `COc1cc(-c2ccc(-c3ccc(C4CN(C(C)C5CCCCO5)C4)nn3)c(O)c2)cc2cn(C)nc12` (stereo not shown) [Compound 187], the Emax at 5 µM was in the range of 25 to 75%.

`COc1cc(-c2ccc(-c3ccc(C4CN(C5CC6(COC(C)C6)C5)C4)nn3)c(O)c2)cc2cn(C)nc12` (stereo not shown) [Compound 188]: the Emax at 5 µM lay in the range of 25 to 75%.

On to `COc1cc(-c2ccc(-c3ccc(C4CN(Cc5ccn(C(C)C)n5)C4)nn3)c(O)c2)cc2cn(C)nc12` [Compound 189], for which the Emax at 5 µM was less than 25%.

With `COc1cc(-c2ccc(-c3ccc(C4CN(CC5C6CCCCC65)C4)nn3)c(O)c2)cc2cn(C)nc12` (stereo not shown) [Compound 190], the Emax at 5 µM lay within 25 to 75%.

Turning to `COc1cc(-c2ccc(-c3ccc(C4CN(Cc5cn(C(C)C)cn5)C4)nn3)c(O)c2)cc2cn(C)nc12` [Compound 191], the Emax at 5 µM was 25 to 75%.

The same experiment, now with this note: Homo sapiens; HTT mini-gene firefly luciferase reporter transiently transfected into HEK293 cells.
For the compound `Cc1cc2cc(-c3ccc(-c4ccc(C5CN(C6CCOCC6)C5)nn4)c(O)c3)ccn2n1` [Compound 192, 5-(2-methylpyrazolo[1,5-a]pyridin-5-yl)-2-(6-(1-(tetrahydro-2H-pyran-4-yl)azetidin-3-yl)pyridazin-3-yl)phenol 2,2,2-trifluoroacetate], the EC50 is no less than 1000 nM.

Broadly, the EC50 is the concentration at which the effect is half-maximal. Low values mean an effect from little substance, high ones a need for much substance.
